Measured values as given in paper PMC7463862, “Gene Cloning, Characterization, and Molecular Simulations of a Novel Recombinant Chitinase from Chitinibacter Tainanensis CT01 Appropriate for Chitin Enzymatic Hydrolysis” (Polymers, 2020).

System: T1, chitinase 1198 Truncated
T1 construct: gene CT01GL001198; perhaps lacks disordered N-terminus (residues 1-201; approx. 63 kD proteolysis bands mentioned)
Experiment: p-nitrophenol release, absorbance at […] nm
Format: biochemical, Chitinibacter tainanensis
Conditions: standard assay 50 mM Tris-HCl pH 7.0, substrate 5-300 μM; temperature of kinetic run not stated

`CC(=O)N[C@H]1[C@H](Oc2ccc([N+](=O)[O-])cc2)O[C@H](CO)[C@@H](O[C@@H]2O[C@H](CO)[C@@H](O)[C@H](O)[C@H]2NC(C)=O)[C@@H]1O` [pNP-(GlcNAc)2] showed a Km of 58.3 ± 11 µM.
